In patent US10221163B2 (priority 2015, dated 2019):
pIC50: −log10 of the molar value. Read-outs that look alike come from different tables or passages of the source.

What was measured:
IMP-1 = IMP-1 (Serratia marcescens, UniProt P52699); assay: biochemical; format: biochemical; details: fluorescence assay, CCF2-FA substrate, 2 pM enzyme, 2 hours at 25° C.; read-out: IMP-1 IC50
In short: (§1)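 IC50 values derive from 4-parameter fits of percent inhibition against inhibitor concentration on semi-log axes. Activity was monitored by fluorescence with the CCF2-FA substrate after a 2-hour, 25° C incubation of compound, enzyme and substrate.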

NDM-1 = NDM-1 (Klebsiella pneumoniae, UniProt C7C422); assay: biochemical; format: biochemical; details: fluorescence assay, CCF2-FA substrate, 1 pM enzyme, 2 hours at 25° C.; read-out: NDM-1 IC50
In short: as §1

VIM-1 = VIM-1 (Pseudomonas aeruginosa (strain ATCC 15692 / DSM 22644 / CIP 104116 / JCM 14847 / LMG 12228 / 1C / PRS 101 / PAO1), UniProt A0A0F7KYQ8); assay: biochemical; details: CCF2-FA substrate, 30 pM enzyme, 2 hours at 25° C.
In short: as §1

[1] = system: Escherichia coli expressing NDM-1 (CLB30005, CLB30016); format: cell-based; details: with imipenem 1 μg/ml; for Escherichia coli MITC95: NDM-1 strain, 95% inhibition of growth; for Escherichia coli expressing NDM-1 (CLB30016) MITC95: 95% inhibition of bacterial growth
In short: (§2)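 Clinical isolates (E. coli NDM-1, S. marcescens IMP-1, K. pneumoniae VIM-1) were diluted 1:100 from saline suspension into 1.1×CAMHB and exposed to test compound with imipenem at 1 μg/ml. Plates were incubated at 35° C for 22 hours to 24 hours, and growth was read by absorbance.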

[2] = system: Klebsiella pneumoniae expressing VIM-1 (IHMA599644); format: cell-based; details: for Klebsiella pneumoniae MITC95: VIM-1 strain IHMA599644, with imipenem 1 μg/ml, 95% inhibition of growth; for Klebsiella pneumoniae expressing VIM-1 (IHMA599644) MITC95: with imipenem 1 μg/ml, 95% inhibition of bacterial growth
In short: as §2

[3] = system: Serratia marcescens expressing IMP-1 (CL5741); format: cell-based; details: for Serratia marcescens MITC95: IMP-1 strain CL5741, with imipenem 1 μg/ml, 95% inhibition of growth; for Serratia marcescens expressing IMP-1 (CL5741) MITC95: with imipenem 1 μg/ml, 95% inhibition of bacterial growth
In short: as §2

[4] = system: Pseudomonas aeruginosa efflux+ (MB9798), IMP-1; format: cell-based; parameters: Concentration of metallo-β-lactamase inhibitor which restores susceptibility of efflux + (MB9798) strain to imipenem: unit not given here; details: C, D serine β-lactamase inhibitor closely related to relebactam; for P. aeruginosa expressing IMP-1, efflux + (MB9798) MITC95: concentration restoring susceptibility to imipenem at 2 μg/mL in the presence of a class A
In short: (§3)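 P. aeruginosa PAO1-derived IMP-1 strains, efflux+ MB9798 and efflux− MB9799, tested by standard microbroth MIC with imipenem and/or ceftazidime fixed, usually at CLSI breakpoint, plus fixed class A/C β-lactamase inhibitor against AmpC. Inhibitor titrated; concentration restoring susceptibility recorded; MB9798/MB9799 fold difference indicates efflux.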

[5] = system: Pseudomonas aeruginosa efflux− (MB9799), IMP-1; format: cell-based; details: C, D serine β-lactamase inhibitor closely related to relebactam; for P. aeruginosa expressing IMP-1, efflux − (MB9799) MITC95: concentration restoring susceptibility to imipenem at 2 μg/mL in the presence of a class A
In short: as §3

[6] = system: Pseudomonas aeruginosa MB9798 vs MB9799
In short: as §3

[7] = fluorescence assay, read-out: VIM-1 IC50
[8] = ratio MITC95 PA_9798/MITC95 PA_9799

NDM-1, sequence (C7C422 whole entry, looked up, species assumed): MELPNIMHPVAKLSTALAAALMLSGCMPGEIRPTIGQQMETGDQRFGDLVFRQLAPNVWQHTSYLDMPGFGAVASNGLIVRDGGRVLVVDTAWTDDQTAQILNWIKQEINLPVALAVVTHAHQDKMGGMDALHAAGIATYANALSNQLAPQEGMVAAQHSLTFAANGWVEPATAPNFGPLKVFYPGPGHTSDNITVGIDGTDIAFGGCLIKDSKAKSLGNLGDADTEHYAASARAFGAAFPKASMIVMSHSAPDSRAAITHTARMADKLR
IMP-1, sequence (P52699 whole entry, looked up, species assumed): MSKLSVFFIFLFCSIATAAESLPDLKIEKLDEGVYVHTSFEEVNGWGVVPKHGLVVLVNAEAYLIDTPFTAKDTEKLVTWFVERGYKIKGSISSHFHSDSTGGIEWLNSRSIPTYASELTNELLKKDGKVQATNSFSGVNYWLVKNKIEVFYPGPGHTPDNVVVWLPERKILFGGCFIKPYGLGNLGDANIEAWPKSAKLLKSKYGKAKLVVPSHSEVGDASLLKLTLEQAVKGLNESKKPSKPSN

Structure (SMILES) | pIC50 (IMP-1) | pIC50 (NDM-1) | pIC50 (VIM-1; [7]) | Escherichia coli MITC95 [1] | Klebsiella pneumoniae MITC95 [2] | Serratia marcescens MITC95 [3] | P. aeruginosa expressing IMP-1, efflux + (MB9798) MITC95 [4] | P. aeruginosa expressing IMP-1, efflux − (MB9799) MITC95 [5] | Efflux ratio [6, 8] | pIC50 (VIM-1; VIM-1 IC50, fluorescence assay) | Escherichia coli expressing NDM-1 (CLB30016) MITC95 [1] | Klebsiella pneumoniae expressing VIM-1 (IHMA599644) MITC95 [2] | Serratia marcescens expressing IMP-1 (CL5741) MITC95 [3] | Concentration of metallo-β-lactamase inhibitor which restores susceptibility of efflux + (MB9798) strain to imipenem ([4]; efflux+ MB9798, imipenem at 2 μg/mL, in the presence of a class A) | Concentration of metallo-β-lactamase inhibitor which restores susceptibility of efflux − (MB9799) strain to imipenem ([5]; efflux− MB9799, imipenem at 2 μg/mL, in the presence of a class A) | Efflux ratio ([6]; fold difference between efflux+ (MB9798) and efflux− (MB9799) strains, imipenem at 2 μg/mL)
NC[C@@H](O)CNS(=O)(=O)c1ccc(-c2cccc3[nH]c(N)nc23)c(-c2nn[nH]n2)c1S(N)(=O)=O [Example 298, (R)-4-(2-amino-1H-benzo[d]imidazol-4-yl)-N1-(3-amino-2-hydroxypropyl)-3-(2H-tetrazol-5-yl)-benzene-1,2-disulfonamide] | 9.17 | 10.24 | 9.87 | 0.2786 µM | 1.031 µM | 0.4531 µM | 0.3555 µM | 0.5156 µM | 0.69 |  |  |  |  |  |  | 
CN1CC2(CCN(S(=O)(=O)c3ccc(-c4cccc5sc(N)nc45)c(-c4nnn[nH]4)c3S(N)(=O)=O)C2)C1 [Example 38, 3-(2-amino-1,3-benzothiazol-4-yl)-6-[(2-methyl-2,6-diazaspiro[3.4]oct-6-yl)sulfonyl]-2-(1H-tetrazol-5-yl)benzenesulfonamide] | 8.84 | 9.37 |  |  |  |  | 3.125 µM | 3.125 µM | 1.00 | 8.60 | 12.5 µM | 12.5 µM | 3.125 µM |  |  | 
NS(=O)(=O)c1ccc(-c2cccc3cn[nH]c23)c(-c2nn[nH]n2)c1S(N)(=O)=O [Example 3, 4-(1H-indazol-7-yl)-3-(2H-tetrazol-5-yl)benzene-1,2-disulfonamide] | 9.63 | 9.82 | 9.59 |  |  |  | 3.125 µM | 1.563 µM | 2.00 |  | 3.125 µM | 6.25 µM | 1.563 µM |  |  | 
C[C@@H](N)CNS(=O)(=O)c1ccc(-c2ccc(N)nc2)c(-c2nn[nH]n2)c1S(N)(=O)=O [Example 480, (R)—N1-(2-aminopropyl)-4-(6-aminopyridin-3-yl)-3-(2H-tetrazol-5-yl) benzene-1,2-disulfonamide] | 9.50 | 9.64 | 9.60 | 0.1953 µM | 1.563 µM | 0.3906 µM |  |  |  |  |  |  |  | 0.7813 | 0.7813 | 1.00
Nc1nc2c(-c3ccc(S(=O)(=O)NCC4CCN4)c(S(N)(=O)=O)c3-c3nn[nH]n3)cccc2[nH]1 (stereo not drawn) [Example 207, 4-(2-amino-1H-benzo[d]imidazol-4-yl)-N1-(azetidin-2-ylmethyl)-3-(2H-tetrazol-5-yl)benzene-1,2-disulfonamide] | 9.00 | 9.56 |  |  |  |  | 3.125 µM | 1.563 µM | 2.00 | 9.16 | 3.125 µM | 3.125 µM | 1.563 µM |  |  | 
NCc1nc2c(-c3ccc(S(=O)(=O)N[C@@H](CN)CO)c(S(N)(=O)=O)c3-c3nn[nH]n3)cccc2[nH]1 [Example 379, (S)—N^1-(1-amino-3-hydroxypropan-2-yl)-4-(2-(aminomethyl)-1H-benzo[d]imidazol-4-yl)-3-(2H-tetrazol-5-yl)benzene-1,2-disulfonamide] | 9.20 | 10.02 |  | 1.563 µM | 1.563 µM | 1.563 µM | 1.563 µM | 0.7813 µM | 2.00 | 9.87 |  |  |  |  |  | 
